Results as given in patent US20120040977A1, “INHIBITORS OF HCV NS5A” (PRESIDIO PHARMACEUTICALS, INC., priority 2009, published 2012).

system: HCV genotype 1b replicon; assay: HCV replicon assay (HCV 1b_Huh-Luc/Neo-ET cell line, luciferase readout); assay type: cell-based; details: Hepatitis C virus; bicistronic genotype 1b replicon in Huh 7 cells, 72 h incubation, luciferase enzyme activity; read-out: Inhibition of HCV genotype 1b
Experimental: Biological activity of the compounds of the invention was determined using an HCV replicon assay. The HCV 1b_Huh-Luc/Neo-ET cell line persistently expressing a bicistronic genotype 1b replicon in Huh 7 cells was obtained from ReBLikon GMBH. This cell line was used to test compound inhibition using luciferase enzyme activity readout as a measurement of compound inhibition of replicon levels.
On Day 1 (the day after plating cells), each compound is added in triplicate to the cells. Plates are incubated for 72 h prior to determining luciferase levels. Enzyme activity was measured using a Bright-Glo Kit (cat. number E2620) manufactured by Promega Corporation. The following equation was used to generate a percent control value for each compound.
% Control=(Average Compound Value/Average Control)*100
The EC50 value was determined using GraphPad Prism and the following equation:
Y=Bottom+(Top−Bottom)/(1+10̂((LogIC50−X)*HillSlope))
EC50 values of compounds are determined several times in the replicon assay. […]

Row | Compound | EC50 [nM]
1 | COC(=O)N[C@H](C(=O)N1CCC[C@H]1C(=O)Nc1ccc(-c2ccc3c(c2)CCc2nc([C@@H]4CCCN4C(=O)[C@@H](NC(=O)OC)C(C)C)[nH]c2-3)cc1)C(C)C [Compound 112] | 1 to 9.9
2 | COC(=O)N[C@H](C(=O)N1CCC[C@H]1C(=O)N[C@H](C)c1ccc(-c2ccc(-c3cnc([C@@H]4CCCN4C(=O)[C@@H](NC(=O)OC)C(C)C)[nH]3)cc2)cc1)C(C)C [Compound 97] | 1 to 9.9
3 | COC(=O)N[C@H](C(=O)N1CCC[C@H]1C(=O)Nc1ccc(-c2ccc(-c3cnc([C@@H]4CCCN4C(=O)[C@@H](NC(=O)OC)C4CCOCC4)[nH]3)cc2)cc1)C1CCOCC1 [Compound 110] | 1 to 9.9
4 | O=C(N[C@@H](C(=O)N1CCOC[C@H]1C(=O)Nc1ccc(-c2ccc(-c3cnc([C@@H]4CCCN4C(=O)[C@H](NC(=O)C4CC4)c4ccccc4)[nH]3)cc2)cc1)c1ccccc1)C1CC1 [Compound 3] | < 1
5 | C#CC[C@H](NC(=O)OC)C(=O)N1CCC[C@H]1C(=O)NCc1ccc(-c2ccc(-c3cnc([C@@H]4CCCN4C(=O)[C@H](CC#C)NC(=O)OC)[nH]3)cc2)cc1 [Compound 81] | 10 to 999
6 | COC(=O)N[C@H](C(=O)N1CCC[C@H]1C(=O)N[C@H](C)c1ccc(-c2ccc(-c3cnc([C@@H]4CCCN4C(=O)[C@@H](NC(=O)OC)[C@@H](C)OC)[nH]3)cc2)cc1)[C@@H](C)OC [Compound 102] | 10 to 999
7 | CC(C)(C)OC(=O)N[C@@H](C(=O)N1CCOC[C@H]1C(=O)Nc1ccc(-c2ccc(-c3cnc([C@@H]4COCCN4C(=O)[C@H](NC(=O)OC(C)(C)C)c4ccccc4)[nH]3)cc2)cc1)c1ccccc1 [Compound 16] | < 1
8 | O=C(N[C@@H](C(=O)N1CCC[C@H]1C(=O)Nc1ccc(-c2ccc(-c3cnc([C@@H]4COCCN4C(=O)[C@H](NC(=O)C4CC4)c4ccccc4)[nH]3)cc2)cc1)c1ccccc1)C1CC1 [Compound 11] | < 1
9 | O=C(NC[C@@H]1CCCN1C(=O)[C@H](NC(=O)N1CCOCC1)c1ccccc1)c1ccc(-c2ccc(-c3cnc([C@@H]4CCCN4C(=O)[C@H](NC(=O)N4CCOCC4)c4ccccc4)[nH]3)cc2)cc1 [Compound 56] | < 1
10 | COC(=O)N[C@H](C(=O)N1CCC[C@H]1CNC(=O)c1ccc(-c2ccc(-c3cnc([C@@H]4CCCN4C(=O)[C@@H](NC(=O)OC)C(C)C)[nH]3)nc2)cc1)C(C)C [Compound 90] | 1 to 9.9
11 | COC(=O)N[C@@H](C)C(=O)N1CCC[C@H]1C(=O)Nc1ccc(-c2ccc(-c3cnc([C@@H]4CCCN4C(=O)[C@H](C)NC(=O)OC)[nH]3)cc2)cc1 [Compound 108] | 10 to 999
12 | COC(=O)N[C@@H](C)C(=O)N1CCC[C@H]1C(=O)N[C@@H](C)c1ccc(-c2ccc(-c3cnc([C@@H]4CCCN4C(=O)[C@H](C)NC(=O)OC)[nH]3)cc2)cc1 [Compound 94] | 1 to 9.9
13 | C#CC[C@H](NC(=O)OC)C(=O)N1CCC[C@H]1C(=O)Nc1ccc(-c2ccc(-c3cnc([C@@H]4CCCN4C(=O)[C@H](CC#C)NC(=O)OC)[nH]3)cc2)cc1 [Compound 76] | 1 to 9.9
14 | COC(=O)N[C@H](C(=O)N1CCC[C@H]1c1nc2c([nH]1)-c1ccc(-c3ccc(C(=O)NC[C@@H]4CCCN4C(=O)[C@H](NC(=O)OC)c4ccccc4)cc3)cc1CC2)C(C)C [Compound 85] | < 1
15 | [2H]C([2H])([2H])C([2H])(C([2H])([2H])[2H])C([2H])(NC(=O)OC)C(=O)N1CCC[C@H]1c1ncc(-c2ccc(-c3ccc(CNC(=O)[C@@H]4CCCN4C(=O)[C@@]([2H])(NC(=O)OC)C([2H])(C([2H])([2H])[2H])C([2H])([2H])[2H])cc3)cc2)[nH]1 (stereo partly shown) [Compound 82] | 1 to 9.9
16 | COC(=O)N[C@@H](C(=O)N1CCC[C@H]1C(=O)NCc1ccc(-c2ccc(-c3cnc([C@@H]4CCCN4C(=O)[C@H](NC(=O)OC)c4ccccc4)[nH]3)cc2)cn1)c1ccccc1 [Compound 120] | < 1
17 | C[C@@H](NC(=O)[C@@H]1CCCN1C(=O)[C@H](NC(=O)C1CC1)c1ccccc1)c1ccc(-c2ccc(-c3cnc([C@@H]4CCCN4C(=O)[C@H](NC(=O)C4CC4)c4ccccc4)[nH]3)cc2)cc1 [Compound 40] | < 1
18 | C=CC[C@H](NC(=O)OC)C(=O)N1CCC[C@H]1C(=O)NCc1ccc(-c2ccc(-c3cnc([C@@H]4CCCN4C(=O)[C@H](CC=C)NC(=O)OC)[nH]3)cc2)cc1 [Compound 80] | 1 to 9.9
19 | CC(C)(C)OC(=O)N[C@@H](C(=O)N1CCC[C@H]1CNC(=O)c1ccc(-c2ccc(-c3cnc([C@@H]4CCCN4C(=O)[C@H](NC(=O)OC(C)(C)C)c4ccccc4)[nH]3)cc2)cc1)c1ccccc1 [Compound 49] | < 1
20 | COC(=O)N[C@H](C(=O)N1CCC[C@H]1C(=O)NCc1ccc(-c2ccc(-c3cnc([C@@H]4CCCN4C(=O)[C@@H](NC(=O)OC)C(C)C)[nH]3)cc2)cc1)C(C)C [Compound 105] | 10 to 999

Row | Compound | EC50 [nM]
21 | COC(=O)N[C@@H](C)C(=O)N1CCC[C@H]1CNC(=O)c1ccc(-c2ccc(-c3cnc([C@@H]4CCCN4C(=O)[C@H](C)NC(=O)OC)[nH]3)cc2)cc1 [Compound 98] | 1 to 9.9
22 | COC(=O)N[C@H](C(=O)N1CCC[C@H]1C(=O)NCc1ccc(-c2ccc(-c3cnc([C@@H]4CCCN4C(=O)[C@@H](NC(=O)OC)C(C)C)[nH]3)cn2)cc1)C(C)C [Compound 116] | 10 to 999
23 | COC(=O)N[C@H](C(=O)N1CCC[C@H]1CNC(=O)c1ccc(-c2ccc3c(c2)CCc2nc([C@@H]4CCCN4C(=O)[C@@H](NC(=O)OC)C(C)C)[nH]c2-3)cc1)C(C)C [Compound 84] | < 1
24 | C[C@H](NC(=O)[C@@H]1CCCN1C(=O)[C@H](NC(=O)OC(C)(C)C)c1ccccc1)c1ccc(-c2ccc(-c3cnc([C@@H]4CCCN4C(=O)[C@H](NC(=O)OC(C)(C)C)c4ccccc4)[nH]3)cc2)cc1 [Compound 34] | < 1
25 | O=C(N[C@@H](C(=O)N1CCC[C@H]1COc1ccc(-c2ccc(-c3cnc([C@@H]4CCCN4C(=O)[C@H](NC(=O)C4CC4)c4ccccc4)[nH]3)cc2)cc1)c1ccccc1)C1CC1 [Compound 31] | < 1
26 | COC(=O)N[C@@H](C(=O)N1CCC[C@H]1c1ncc(-c2ccc(-c3ccc(C(=O)NC[C@@H]4CCCN4C(=O)[C@@H](c4ccccc4)N(C)C)cc3)cc2)[nH]1)c1ccccc1 [Compound 65] | < 1
27 | CC(C)[C@@H](NC(=O)C1CC1)C(=O)N1CCOC[C@H]1C(=O)Nc1ccc(-c2ccc(-c3cnc([C@@H]4CCCN4C(=O)[C@H](NC(=O)C4CC4)C(C)C)[nH]3)cc2)cc1 [Compound 23] | 1 to 9.9
28 | CC(C)[C@@H](NC(=O)C1CC1)C(=O)N1CCC[C@H]1C(=O)Nc1ccc(-c2ccc(-c3cnc([C@@H]4CCCN4C(=O)[C@H](NC(=O)C4CC4)C(C)C)[nH]3)cc2)cc1 [Compound 29] | 1 to 9.9
29 | [2H]C([2H])([2H])C([2H])(C([2H])([2H])[2H])C([2H])(NC(=O)OC)C(=O)N1CCC[C@H]1c1ncc(-c2ccc(-c3ccc(NC(=O)[C@@H]4CCCN4C(=O)[C@@]([2H])(NC(=O)OC)C([2H])(C([2H])([2H])[2H])C([2H])([2H])[2H])cc3)cc2)[nH]1 (stereo partly shown) [Compound 77] | < 1
30 | O=C(NC[C@@H]1CCCN1C(=O)[C@H](NC(=O)C1CC1)c1ccccc1)c1ccc(-c2ccc(-c3cnc([C@@H]4CCCN4C(=O)[C@H](NC(=O)C4CC4)c4ccccc4)[nH]3)cc2)cc1 [Compound 55] | < 1
31 | C[C@@H](NC(=O)C1CC1)C(=O)N1CCOC[C@H]1C(=O)Nc1ccc(-c2ccc(-c3cnc([C@@H]4COCCN4C(=O)[C@@H](C)NC(=O)C4CC4)[nH]3)cc2)cc1 [Compound 24] | 10 to 999
32 | O=C(N[C@@H](C(=O)N1CCC[C@H]1COc1ccc(-c2ccc(-c3cnc([C@@H]4CCCN4C(=O)[C@H](NC(=O)N4CCOCC4)c4ccccc4)[nH]3)cc2)cc1)c1ccccc1)N1CCOCC1 [Compound 32] | < 1
33 | O=C(N[C@@H](C(=O)N1CCC[C@H]1c1ncc(-c2ccc(Sc3ccc(-c4cnc([C@@H]5CCCN5C(=O)[C@H](NC(=O)N5CCOCC5)c5ccccc5)[nH]4)cc3)cc2)[nH]1)c1ccccc1)N1CCOCC1 [Compound 51] | < 1
34 | C=CC[C@H](NC(=O)OC)C(=O)N1CCC[C@H]1C(=O)Nc1ccc(-c2ccc(-c3cnc([C@@H]4CCCN4C(=O)[C@H](CC=C)NC(=O)OC)[nH]3)cc2)cc1 [Compound 75] | 1 to 9.9
35 | C[C@@H](NC(=O)OC(C)(C)C)C(=O)N1CCC[C@H]1c1ncc(-c2ccc(Oc3ccc(-c4cnc([C@@H]5CCCN5C(=O)[C@@H](C)NC(=O)OC(C)(C)C)[nH]4)cc3)cc2)[nH]1 [Compound 47] | 1 to 9.9
36 | CC(C)(C)OC(=O)N[C@@H](C(=O)N1CCOC[C@H]1C(=O)Nc1ccc(-c2ccc(-c3cnc([C@@H]4CCCN4C(=O)[C@H](NC(=O)OC(C)(C)C)c4ccccc4)[nH]3)cc2)cc1)c1ccccc1 [Compound 21] | < 1
37 | COC(=O)N[C@H](C(=O)N1CCC[C@H]1CNC(=O)c1ccc(-c2ccc(-c3cnc([C@@H]4CCCN4C(=O)[C@@H](NC(=O)OC)C4CCOCC4)[nH]3)cc2)cc1)C1CCOCC1 [Compound 123] | 1 to 9.9
38 | CC(C)[C@@H](NC(=O)OC(C)(C)C)C(=O)N1CCC[C@H]1C(=O)Nc1ccc(-c2ccc(-c3cnc([C@@H]4COCCN4C(=O)[C@H](NC(=O)OC(C)(C)C)C(C)C)[nH]3)cc2)cc1 [Compound 10] | 10 to 999
39 | CC(C)[C@@H](NC(=O)OC(C)(C)C)C(=O)N1CCC[C@H]1c1ncc(-c2ccc(Oc3ccc(-c4cnc([C@@H]5CCCN5C(=O)[C@H](NC(=O)OC(C)(C)C)C(C)C)[nH]4)cc3)cc2)[nH]1 [Compound 48] | 1 to 9.9
40 | CC(C)(C)OC(=O)N[C@@H](C(=O)N1CCC[C@H]1C(=O)Nc1ccc(-c2ccc(-c3cnc([C@@H]4COCCN4C(=O)[C@H](NC(=O)OC(C)(C)C)c4ccccc4)[nH]3)cc2)cc1)c1ccccc1 [Compound 8] | < 1
